This is an account of results in ChEMBL document CHEMBL1201862, “PubChem BioAssay data set” (2004).

A short description of test [1]: Luminescence Cell-Based/Microorganism Confirmation at Dose of Inhibitors of Trypanosoma cruzi Infection. [Related pubchem assays: 1885, 1968 ]. In kind it is functional.
A short description of test [2]: Trypanosoma cruzi growth suppression in host cells – NIH3T3 host cells, beta-gal luminescence, confirmation (AID 2044).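 Note: intracellular parasites grown in NIH/3T3 mouse fibroblasts as host cells; luminescent beta-galactosidase reporter signal from transgenic T. cruzi replicating inside host cells; inhibitors lower the luminescence signal.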 Format: functional, cell-based.
A short description of test [3]: Luminescence Cell-Based Secondary HTS screen to identify cytotoxic compounds of NIH3T3 cells. [Related pubchem assays: 1885, 1968 ]. Format: functional.
Test [4] can be described thus: NIH3T3 cell viability loss – ATP luminescence, mouse fibroblasts, counter-screen, dose response (AID 2010).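 Note: cells exposed to compound for about 90 hours before reading.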 In kind it is functional, cell-based. A general note: The purpose of a counterscreen is to sort out artefacts and off-target activity.
The nature of test [5]: T. cruzi infection blockers in NIH3T3 cells – beta-gal luminescence, NIH3T3 host cells, confirmation (AID 2630). In kind it is functional, cell-based. The settings on record: Mus musculus.
A further test deals with T1, Genome polyprotein (Hepatitis C virus, UniProt Q2Q167).
T1 sequence (Q2Q167 whole entry): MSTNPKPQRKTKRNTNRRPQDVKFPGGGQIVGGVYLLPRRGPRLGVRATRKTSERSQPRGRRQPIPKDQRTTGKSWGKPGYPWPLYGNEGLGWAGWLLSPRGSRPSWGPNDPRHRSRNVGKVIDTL
The experiment in a line: disruption of hepatitis C core self-association – biochemical, TR-FRET, dose response (AID 2159).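 Note: blocks dimerization of HCV core protein measured by TR-FRET between tagged core106 pairs.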 Also on record: species or system Hepacivirus hominis. On the technique in general: TR-FRET usually uses a lanthanide donor and a delayed reading to cut background.

The target of the next test is Protein Rev (Human immunodeficiency virus type 1 group M subtype B (isolate WMJ22)(HIV-1), UniProt P05866). Nature of the test: inhibitors of Rev protein–RRE RNA complex – biochemical, protein-RNA interaction, dose response (AID 842). On the set-up: species or system Human immunodeficiency virus 1.
For test [6], the target named is T2, Voltage-gated N-type calcium channel alpha-1B subunit/Amyloid beta A4 precursor protein-binding family A member 1 (Homo sapiens, UniProt Q00975+Q02410). Format: protein assay.
Test [7] has as its target T2, Voltage-gated N-type calcium channel alpha-1B subunit/Amyloid beta A4 precursor protein-binding family A member 1. Format: protein assay. This is another data set of the same source.
The target of test [8] is T3, Induced myeloid leukemia cell differentiation protein Mcl-1 (Homo sapiens, UniProt Q07820). The experiment in a line: blockers of MCL1 binding to BIM peptide – biochemical, fluorescence polarization, BIM-BH3 peptide, 1536-well, dose response (AID 2217). On the technique in general: In fluorescence polarisation assays a small probe gives low polarisation when free and higher when bound to something large.

In test [9] the target is Protein-tyrosine kinase 2-beta (Homo sapiens, UniProt Q14289).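 Note: potency of inhibitors of PYK2 kinase phosphorylation of poly-GT substrate.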
The target in another test is Bcl-2-like protein 1 (Homo sapiens, UniProt Q07817). Nature of the test: blockers of BCLXL peptide binding – biochemical, fluorescence polarization, 1536-well, selectivity assay for MCL1 inhibitor project, dose response (AID 2218).
Test [10] deals with T3, Induced myeloid leukemia cell differentiation protein Mcl-1. Format: functional.
For a further test, the target named is SUMO E1/E2 (Homo sapiens, UniProt P63279+Q9UBE0+Q9UBT2). Nature of the test: SAR analysis of SUMOylation using HTRF in an in-Vitro dose response assay. [Related pubchem assays (depositor defined):AID2006, AID2011, AID2018, AID2069, AID2658]. Format: functional.
In test [11] the target is T2, Voltage-gated N-type calcium channel alpha-1B subunit/Amyloid beta A4 precursor protein-binding family A member 1. The experiment in a line: disruptors of Mint-PDZ/N-type channel peptide interaction – biochemical, HTRF, set 2, SAR follow-up (AID 434980). In kind it is functional.
Test [12] has the same target. The experiment in a line: disruptors of Mint-PDZ/N-type channel peptide interaction – biochemical, HTRF, SAR follow-up (AID 2489). In kind it is functional.
Test [13] has as its target DNA (cytosine-5)-methyltransferase 1 (Homo sapiens, UniProt P26358). Nature of the test: inhibition of DNA methylation by DNMT1 – biochemical, fluorescent molecular beacon, confirmation (AID 602386). In kind it is functional.
In test [14] the target is T4, Probable nicotinate-nucleotide adenylyltransferase (Staphylococcus aureus (strain N315), UniProt P65502). In kind it is functional, Staphylococcus aureus subsp. aureus N315.
For test [15], the target named is T4, Probable nicotinate-nucleotide adenylyltransferase. In kind it is functional, Staphylococcus aureus subsp. aureus N315. The settings on record: read-out: IC50_Mean.
Test [16] in a line: NIH-3T3 fibroblast cytotoxicity, dose response, cytotoxicity control, cell-based, fluorescence, Alamar Blue, secondary assay (AID 2327).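 Note: NIH-3T3 mouse fibroblasts cultured with fluconazole at 8 µg/mL.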 In kind it is functional.
For test [17], the system named is Streptococcus sp. 'group A'. Nature of the test: Streptococcus pyogenes SK(-)GAS viability under kanamycin – luminescence, BacTiterGlo, confirmation, counter-screen for streptokinase expression inhibitor project, dose response (AID 1900). In kind it is functional, organism-based.
A further test concerns the target T5, Streptokinase A (Streptococcus pyogenes serotype M1, UniProt P10520).
T5 sequence (P10520 whole entry): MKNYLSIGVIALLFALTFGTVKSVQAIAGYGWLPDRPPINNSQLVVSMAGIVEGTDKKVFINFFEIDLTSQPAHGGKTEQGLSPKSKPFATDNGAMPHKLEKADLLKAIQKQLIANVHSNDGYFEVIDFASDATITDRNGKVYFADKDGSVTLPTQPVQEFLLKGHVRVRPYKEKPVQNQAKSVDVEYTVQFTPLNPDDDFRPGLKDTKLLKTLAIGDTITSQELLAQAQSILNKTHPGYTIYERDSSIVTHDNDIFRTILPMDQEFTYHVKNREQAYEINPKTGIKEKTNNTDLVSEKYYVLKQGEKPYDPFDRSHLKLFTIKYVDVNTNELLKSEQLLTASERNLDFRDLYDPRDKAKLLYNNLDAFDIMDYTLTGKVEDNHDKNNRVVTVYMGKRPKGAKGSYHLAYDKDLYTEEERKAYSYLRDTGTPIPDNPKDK
The experiment in a line: viability-normalized secreted streptokinase activity reduction – plasminogen activation absorbance, OD405, dose response (AID 1914).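 Note: secreted streptokinase activity via plasminogen activation per viability signal from cell pellet.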 Format: functional, Streptococcus pyogenes M1 GAS.

Test [18] can be described thus: fluconazole-exposed Candida albicans growth modulators – fluorescence, retest, confirmation (AID 2467). Format: functional, cell-based.
For another test, the system named is Streptococcus. Nature of the test: GAS UMAA2166 growth inhibition – luminescence, BacTiterGlo, counter-screen for streptokinase expression inhibitor project, dose response (AID 1915).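 Note: potency for reduction of bacterial viability or growth.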 In kind it is functional, organism-based.
Test [19] deals with Intestinal-type alkaline phosphatase (Mus musculus, UniProt P24822). Nature of the test: PubChem AID 488875. In kind it is functional.
The target in test [20] is T6, Intestinal-type alkaline phosphatase (Homo sapiens, UniProt P09923). Nature of the test: human intestinal alkaline phosphatase activators, dose response, biochemical, luminescence, uHTS hits (AID 463120). In kind it is functional.
In test [21] the target is T6, Intestinal-type alkaline phosphatase. The experiment in a line: activation of human intestinal alkaline phosphatase – biochemical, luminescent, uHTS hits, set 2, dose response (AID 488817).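 Note: potency of activators that raise enzyme activity.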 In kind it is functional.
In test [22] the target is T7, Alkaline phosphatase, tissue-nonspecific isozyme (Homo sapiens, UniProt P05186).
T7 sequence (P05186 whole entry): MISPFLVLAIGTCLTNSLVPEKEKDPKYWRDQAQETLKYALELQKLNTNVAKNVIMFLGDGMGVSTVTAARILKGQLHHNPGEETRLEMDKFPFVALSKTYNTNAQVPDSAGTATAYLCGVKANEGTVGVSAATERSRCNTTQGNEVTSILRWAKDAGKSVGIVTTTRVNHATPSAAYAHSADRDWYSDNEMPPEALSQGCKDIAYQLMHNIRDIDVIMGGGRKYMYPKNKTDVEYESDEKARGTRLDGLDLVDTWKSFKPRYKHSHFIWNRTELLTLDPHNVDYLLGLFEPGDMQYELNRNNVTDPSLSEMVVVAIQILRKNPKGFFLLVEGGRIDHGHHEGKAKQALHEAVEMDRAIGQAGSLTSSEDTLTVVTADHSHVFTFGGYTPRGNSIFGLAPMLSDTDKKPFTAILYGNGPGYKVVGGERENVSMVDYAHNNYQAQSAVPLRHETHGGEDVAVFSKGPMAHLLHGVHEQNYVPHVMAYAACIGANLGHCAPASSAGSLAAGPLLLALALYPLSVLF
Nature of the test: activation of tissue-nonspecific alkaline phosphatase – biochemical, TNAP isozyme, human IAP uHTS hits, selectivity assay for human IAP activator project, dose response (AID 488886).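 Note: potency of compounds raising TNAP activity as a selectivity check on IAP activators.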 Format: functional.

In the next test the target is T8, Estrogen receptor (Homo sapiens, UniProt P03372).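 Note: potency for inhibiting coactivator peptide recruitment to the receptor.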
T8 sequence (P03372 whole entry): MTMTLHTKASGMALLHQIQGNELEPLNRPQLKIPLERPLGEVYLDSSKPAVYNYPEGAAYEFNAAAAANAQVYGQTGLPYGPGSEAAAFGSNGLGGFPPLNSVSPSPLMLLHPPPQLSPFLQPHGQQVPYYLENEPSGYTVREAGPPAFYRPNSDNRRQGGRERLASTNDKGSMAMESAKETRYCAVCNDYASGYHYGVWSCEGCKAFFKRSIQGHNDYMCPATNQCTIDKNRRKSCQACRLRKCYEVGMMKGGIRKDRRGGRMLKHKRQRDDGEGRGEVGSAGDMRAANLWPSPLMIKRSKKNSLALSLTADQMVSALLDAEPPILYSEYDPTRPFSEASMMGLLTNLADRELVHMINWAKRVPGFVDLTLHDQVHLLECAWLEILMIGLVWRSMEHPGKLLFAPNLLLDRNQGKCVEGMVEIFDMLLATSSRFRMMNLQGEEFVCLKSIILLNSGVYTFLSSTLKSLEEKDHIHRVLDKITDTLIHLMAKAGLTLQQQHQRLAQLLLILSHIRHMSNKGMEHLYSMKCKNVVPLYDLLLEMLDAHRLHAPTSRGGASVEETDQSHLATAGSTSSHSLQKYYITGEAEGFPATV

In test [23] the target is Mitogen-activated protein kinase 10 (Homo sapiens, UniProt P53779). The experiment in a line: Dose response biochemical screening assay for inhibitors of c-Jun N-Terminal Kinase 3 (JNK3). [Related pubchem assays: 746 ].
The target of the next test is Trypsin (Sus scrofa, UniProt P00761). Nature of the test: trypsin protease activity blockade – biochemical, quenched peptide fluorescence, cherry-pick, selectivity assay for Rce1 protease inhibitor project, dose response (AID 488789).
The target in another test is T9, CAAX prenyl protease 2 (Saccharomyces cerevisiae S288c, UniProt Q03530).
T9 sequence (Q03530 whole entry): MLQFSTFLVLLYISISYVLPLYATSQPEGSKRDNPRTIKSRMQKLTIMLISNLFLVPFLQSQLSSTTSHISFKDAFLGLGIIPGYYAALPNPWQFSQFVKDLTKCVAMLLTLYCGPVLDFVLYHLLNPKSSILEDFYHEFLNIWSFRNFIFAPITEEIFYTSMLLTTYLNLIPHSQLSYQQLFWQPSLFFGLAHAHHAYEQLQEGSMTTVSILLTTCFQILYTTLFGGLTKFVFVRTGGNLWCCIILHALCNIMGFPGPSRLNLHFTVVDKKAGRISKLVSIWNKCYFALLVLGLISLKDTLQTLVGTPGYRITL
In kind it is biochemical.

A further test deals with CAAX prenyl protease 1 (Saccharomyces cerevisiae S288c, UniProt P47154). Nature of the test: yeast CAAX protease Ste24 inhibition – biochemical, S. cerevisiae, plate reader, cherry-pick, dose response (AID 488815).

“And” between values parts separate entries of the source, which are not always exact repeats. Identical values can stand only once. The source made the active and inactive calls. Where only a bound is given, the exact number is not on record here.
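Throughout, for IC50 Mean: confirmatory dose-response retesting of NadD inhibitor hits first found in an ultra-high-throughput screen.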

T2 sequence (Q00975 whole entry): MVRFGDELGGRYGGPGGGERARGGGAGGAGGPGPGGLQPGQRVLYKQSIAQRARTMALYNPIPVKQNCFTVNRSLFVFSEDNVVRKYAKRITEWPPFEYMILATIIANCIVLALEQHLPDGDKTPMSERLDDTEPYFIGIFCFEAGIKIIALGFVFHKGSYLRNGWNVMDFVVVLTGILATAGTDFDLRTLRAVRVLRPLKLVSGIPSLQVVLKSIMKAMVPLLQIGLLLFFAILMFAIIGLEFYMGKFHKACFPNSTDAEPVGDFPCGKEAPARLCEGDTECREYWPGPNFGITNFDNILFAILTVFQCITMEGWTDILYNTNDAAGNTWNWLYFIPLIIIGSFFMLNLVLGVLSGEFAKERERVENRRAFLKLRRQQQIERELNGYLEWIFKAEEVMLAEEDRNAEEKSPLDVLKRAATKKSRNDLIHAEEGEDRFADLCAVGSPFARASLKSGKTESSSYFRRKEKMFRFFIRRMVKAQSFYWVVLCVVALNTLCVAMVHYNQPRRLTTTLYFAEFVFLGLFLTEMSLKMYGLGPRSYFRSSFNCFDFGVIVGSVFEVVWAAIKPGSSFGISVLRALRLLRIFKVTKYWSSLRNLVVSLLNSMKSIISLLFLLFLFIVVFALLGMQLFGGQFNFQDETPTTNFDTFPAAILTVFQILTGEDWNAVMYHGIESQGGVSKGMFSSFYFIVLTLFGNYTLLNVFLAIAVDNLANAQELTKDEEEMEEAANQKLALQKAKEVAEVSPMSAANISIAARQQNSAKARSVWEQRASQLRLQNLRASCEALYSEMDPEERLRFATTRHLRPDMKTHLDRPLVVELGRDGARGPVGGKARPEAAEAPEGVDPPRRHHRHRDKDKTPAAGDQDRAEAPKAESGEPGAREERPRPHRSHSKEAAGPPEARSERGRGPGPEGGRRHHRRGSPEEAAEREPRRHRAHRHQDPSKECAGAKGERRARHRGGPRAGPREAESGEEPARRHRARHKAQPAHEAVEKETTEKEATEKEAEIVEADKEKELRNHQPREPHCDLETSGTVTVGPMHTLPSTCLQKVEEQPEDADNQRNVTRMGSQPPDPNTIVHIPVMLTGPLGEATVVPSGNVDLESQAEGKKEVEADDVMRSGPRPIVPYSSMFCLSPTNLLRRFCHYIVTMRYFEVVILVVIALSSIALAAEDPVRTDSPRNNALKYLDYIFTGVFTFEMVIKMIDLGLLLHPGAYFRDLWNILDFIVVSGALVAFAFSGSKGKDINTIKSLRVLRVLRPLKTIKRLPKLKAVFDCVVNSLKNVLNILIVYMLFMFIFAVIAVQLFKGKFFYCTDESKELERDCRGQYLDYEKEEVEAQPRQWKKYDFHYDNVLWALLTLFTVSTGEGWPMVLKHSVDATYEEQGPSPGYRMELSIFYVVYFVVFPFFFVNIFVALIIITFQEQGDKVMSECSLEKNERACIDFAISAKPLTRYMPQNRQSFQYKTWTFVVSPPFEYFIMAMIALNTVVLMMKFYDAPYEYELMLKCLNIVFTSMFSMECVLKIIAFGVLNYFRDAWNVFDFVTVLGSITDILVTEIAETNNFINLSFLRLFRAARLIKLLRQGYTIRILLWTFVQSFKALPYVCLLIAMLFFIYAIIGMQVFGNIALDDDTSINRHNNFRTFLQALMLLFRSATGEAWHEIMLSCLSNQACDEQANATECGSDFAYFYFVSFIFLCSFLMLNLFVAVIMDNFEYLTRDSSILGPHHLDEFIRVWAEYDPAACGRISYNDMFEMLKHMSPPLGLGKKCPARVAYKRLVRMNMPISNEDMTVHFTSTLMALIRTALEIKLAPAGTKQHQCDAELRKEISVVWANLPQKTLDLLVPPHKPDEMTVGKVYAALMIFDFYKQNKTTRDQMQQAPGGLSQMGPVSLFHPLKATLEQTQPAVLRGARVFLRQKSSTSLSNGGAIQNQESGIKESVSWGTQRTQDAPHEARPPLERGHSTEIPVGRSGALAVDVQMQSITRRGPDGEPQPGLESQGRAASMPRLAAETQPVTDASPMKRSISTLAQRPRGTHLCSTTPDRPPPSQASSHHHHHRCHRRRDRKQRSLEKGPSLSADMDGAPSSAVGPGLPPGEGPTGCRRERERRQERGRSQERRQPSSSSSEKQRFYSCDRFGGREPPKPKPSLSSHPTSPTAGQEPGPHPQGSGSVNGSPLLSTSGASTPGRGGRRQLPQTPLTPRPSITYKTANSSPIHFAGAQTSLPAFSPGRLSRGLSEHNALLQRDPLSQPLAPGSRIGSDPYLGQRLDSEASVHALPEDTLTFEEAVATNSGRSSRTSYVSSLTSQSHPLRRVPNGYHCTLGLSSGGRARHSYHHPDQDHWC
T2 sequence (Q02410 whole entry): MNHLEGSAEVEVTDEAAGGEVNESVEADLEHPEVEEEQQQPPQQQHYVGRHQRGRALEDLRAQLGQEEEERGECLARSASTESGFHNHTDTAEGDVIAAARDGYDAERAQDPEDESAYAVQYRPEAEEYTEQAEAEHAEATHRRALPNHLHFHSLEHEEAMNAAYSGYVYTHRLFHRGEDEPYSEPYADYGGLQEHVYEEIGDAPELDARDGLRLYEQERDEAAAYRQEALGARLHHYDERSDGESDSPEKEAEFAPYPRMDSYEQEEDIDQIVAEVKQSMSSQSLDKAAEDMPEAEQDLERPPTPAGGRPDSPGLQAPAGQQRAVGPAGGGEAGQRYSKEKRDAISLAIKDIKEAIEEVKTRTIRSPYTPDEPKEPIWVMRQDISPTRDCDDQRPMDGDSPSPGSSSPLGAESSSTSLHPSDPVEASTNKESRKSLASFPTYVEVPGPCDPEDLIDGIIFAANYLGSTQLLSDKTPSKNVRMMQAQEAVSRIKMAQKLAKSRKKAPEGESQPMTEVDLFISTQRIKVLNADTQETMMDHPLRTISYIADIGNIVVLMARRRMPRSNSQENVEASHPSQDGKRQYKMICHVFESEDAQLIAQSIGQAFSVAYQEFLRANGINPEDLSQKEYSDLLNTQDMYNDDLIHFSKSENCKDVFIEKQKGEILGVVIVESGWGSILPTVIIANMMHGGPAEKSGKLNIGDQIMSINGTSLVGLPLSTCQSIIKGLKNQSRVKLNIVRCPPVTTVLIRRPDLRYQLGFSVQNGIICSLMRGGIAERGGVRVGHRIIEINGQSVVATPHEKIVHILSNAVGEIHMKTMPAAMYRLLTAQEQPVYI
T4 sequence (P65502 whole entry): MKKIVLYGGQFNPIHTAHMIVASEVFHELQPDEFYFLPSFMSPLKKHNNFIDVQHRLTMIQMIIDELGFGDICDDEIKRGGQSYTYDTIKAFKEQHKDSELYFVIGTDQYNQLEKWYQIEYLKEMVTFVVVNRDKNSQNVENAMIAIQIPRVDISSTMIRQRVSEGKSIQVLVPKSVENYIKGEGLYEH
SUMO E1/E2, sequence (Q9UBE0 whole entry): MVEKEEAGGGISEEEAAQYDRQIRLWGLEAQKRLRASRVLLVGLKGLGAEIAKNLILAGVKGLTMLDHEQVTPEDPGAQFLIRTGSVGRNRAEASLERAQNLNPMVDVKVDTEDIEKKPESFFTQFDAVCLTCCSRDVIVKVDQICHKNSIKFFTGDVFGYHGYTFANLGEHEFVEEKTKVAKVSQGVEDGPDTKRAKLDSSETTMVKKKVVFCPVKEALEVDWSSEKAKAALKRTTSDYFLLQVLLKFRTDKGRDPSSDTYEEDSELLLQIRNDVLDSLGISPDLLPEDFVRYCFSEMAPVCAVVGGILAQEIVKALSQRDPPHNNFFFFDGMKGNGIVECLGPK
SUMO E1/E2, sequence (Q9UBT2 whole entry): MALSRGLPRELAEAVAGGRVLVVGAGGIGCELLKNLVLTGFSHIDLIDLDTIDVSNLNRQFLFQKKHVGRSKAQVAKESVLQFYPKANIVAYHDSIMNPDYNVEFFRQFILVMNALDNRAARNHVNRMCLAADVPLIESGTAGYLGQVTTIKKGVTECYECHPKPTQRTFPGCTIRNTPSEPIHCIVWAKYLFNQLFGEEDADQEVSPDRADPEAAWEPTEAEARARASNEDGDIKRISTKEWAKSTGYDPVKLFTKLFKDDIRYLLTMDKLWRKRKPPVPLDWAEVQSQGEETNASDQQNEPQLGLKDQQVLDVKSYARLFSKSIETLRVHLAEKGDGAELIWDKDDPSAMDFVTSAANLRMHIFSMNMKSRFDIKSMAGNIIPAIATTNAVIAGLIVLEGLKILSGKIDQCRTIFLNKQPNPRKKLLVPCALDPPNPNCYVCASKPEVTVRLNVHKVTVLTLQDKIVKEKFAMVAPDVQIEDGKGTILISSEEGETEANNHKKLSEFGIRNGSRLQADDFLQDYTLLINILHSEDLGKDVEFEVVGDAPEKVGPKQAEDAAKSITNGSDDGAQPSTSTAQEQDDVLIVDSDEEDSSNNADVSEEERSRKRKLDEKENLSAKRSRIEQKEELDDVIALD
SUMO E1/E2, sequence (P63279 whole entry): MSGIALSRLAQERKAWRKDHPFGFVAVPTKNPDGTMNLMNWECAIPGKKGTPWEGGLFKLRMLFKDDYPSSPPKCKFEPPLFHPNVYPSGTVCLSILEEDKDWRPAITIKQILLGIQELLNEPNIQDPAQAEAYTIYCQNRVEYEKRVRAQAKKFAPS
T3 sequence (Q07820 whole entry): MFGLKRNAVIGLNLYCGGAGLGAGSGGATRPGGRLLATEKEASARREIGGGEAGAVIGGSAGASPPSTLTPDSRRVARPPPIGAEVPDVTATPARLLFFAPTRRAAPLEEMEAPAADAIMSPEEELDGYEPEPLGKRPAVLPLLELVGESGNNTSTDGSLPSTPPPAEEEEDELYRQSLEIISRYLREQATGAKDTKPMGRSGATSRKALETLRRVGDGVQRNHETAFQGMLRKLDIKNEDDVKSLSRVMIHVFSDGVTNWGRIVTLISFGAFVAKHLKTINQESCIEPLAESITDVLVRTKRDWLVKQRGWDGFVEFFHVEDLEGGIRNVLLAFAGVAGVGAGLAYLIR
Protein Rev, sequence (P05866 whole entry): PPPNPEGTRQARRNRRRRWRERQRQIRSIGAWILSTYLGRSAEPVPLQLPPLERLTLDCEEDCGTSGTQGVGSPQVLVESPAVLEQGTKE

With `CC(=O)c1cccc(CN2CCCC(CCC(=O)NCc3ccc(F)c(F)c3)C2)c1` (centres undefined), the EC50 (usually the midpoint of the concentration-response curve) is 0.069 µM (active) in test [1]; < 0.1 µM (active) in test [2]; > 195 µM (not active) in test [3]; > 60 µM (not active) in [4]; 0.069 µM (active) in [5]; 0.07 µM (active) in “cells”.

In the case of `O=C(N/N=C/c1cccc(F)c1)c1cc(-c2ccco2)nc2ccccc12`, the IC50 on Genome polyprotein is > 49.8 µM (not active); at Protein Rev, > 79.4 µM (not active); in [6] it was 3.18 µM (active); in [7] it was 8.21 µM (active); in test [8], 7.19 µM (active); in test [9] it was 2.25 µM (active). Besides, the IC50 at Bcl-2-like protein 1 was > 109 µM (not active); in test [10], 1.67 µM (active); at SUMO E1/E2 it was 7.16 µM (active) and 9.07 µM (active); in [11], 12.9 µM (active) and 4.79 µM (active); in [12], > 56.8 µM (inactive) and 8.96 µM (active); in test [13], 4.81 µM (active). Further, the values for the IC50 in [14] and in test [15] were 7.33 µM (active) and 21.1 µM (active), respectively.

For the compound `CC(C)CC(=O)NC(=S)NNC(=O)c1ccc(NC(=O)C2CCCCC2)cc1`, the EC50 in test [16] was 43.7 µM (active); in test [17], 0.517 µM (active); on Streptokinase A, > 150 µM (not active); in [18] it was 2.57 µM (active); in the test on Streptococcus, 9.89 µM (active); in [19], 43.2 µM (active). The values for the EC50 in [20], in test [21] and in [22] were 18.7 µM (active), 58.1 µM (active) and 70.2 µM (active), respectively.

In the case of `O=C1c2ccccc2NC2=NCCCCN12`, the results for the IC50 (at Estrogen receptor; in test [23]) were > 50 µM (not active) and 39.5 µM (not active), respectively. Also, the values for the AC50 at Trypsin, on CAAX prenyl protease 2 and on CAAX prenyl protease 1 were 11.4 µM (active), 31.1 µM (active) and 3.9 µM (active), respectively.
